Values of other authors as cited in US20140127291A1, “EXTENDED RELEASE ACETAMINOPHEN LIQUID PHARMACEUTICAL COMPOSITIONS” (MAYNE PHARMA INTERNATIONAL PTY LTD, priority 2011, published 2014).

Columns and labels:
[1] = in vivo

- saturation concentration in water: about 14 mg/ml
- half life [1]: 1 to 4 h
Structure (SMILES): CC(=O)Nc1ccc(O)cc1 [acetaminophen]
